{"source": "PubChem BioAssay (NCI)", "note": "Several values for one entry are separate records, joined by “and”; a condition that tells them apart may be missing. Equal values may be shown once.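 These data come from cells grown in 96-well plates and exposed to compound for 48 hours at five concentrations. The concentration for 50% growth inhibition is given as GI50. TGI marks complete inhibition of growth.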"}
{"system": "MDA-MB-468 breast", "experiment": "inhibition of tumour cell growth, NCI panel, 48 h"}
{"smiles": "CN1C(=O)N(C)C2C1NC(=S)N2/N=C/C=C/c1ccccc1[N+](=O)[O-]", "note": "(stereo not given)", "GI50": "0.431 µM", "TGI": "88.2 µM"}
{"smiles": "CC(C)(C)NCC(O)c1ccccc1Cl", "note": "(stereo not given)", "GI50": "> 100 µM", "TGI": "> 100 µM"}
{"smiles": "CC1=CC2(C)/C=C(C)/C=C\\CC(O)/C=C3/C=CC(=C4C(=O)OC2(CC1C)C4=O)OC3", "note": "(stereo not given)", "GI50": "1.18 µM", "TGI": "2.85 µM"}
{"smiles": "Cc1cc(OCc2ccc(C(F)(F)F)cc2)c2c(c1)C(=O)C=C(NCCN1CCCC1)C2=O", "GI50": "2 µM", "TGI": "4.55 µM"}
{"smiles": "Cn1nc(C(F)(F)F)cc1-c1cc(Cl)c(OCc2ccc(Cl)cc2)c(-c2ccc(Cl)c(C(F)(F)F)c2)c1O", "GI50": "0.833 µM", "TGI": "4.97 µM"}
{"smiles": "CCC[CH2][Sn]1([CH2]CCC)[O]C(=O)c2cccc([N+](=O)[O-])c2C(=O)[O]1", "GI50": "0.153 µM", "TGI": "0.449 µM"}
{"smiles": "Cc1ccsc1C(NC(=O)c1ccccc1)c1cc(Cl)c2cccnc2c1O", "note": "(stereo not given)", "GI50": "0.602 µM", "TGI": "5.63 µM"}
{"smiles": "COc1cc(OC)c(/C=C/C(=O)c2c(OC)cc(OC)cc2OC)c(OC)c1", "GI50": "0.7 µM", "TGI": "4.55 µM"}
{"smiles": "CC(C)[C@@H](C(=O)O[C@@H]1/C=C/C(=O)O[C@@H](C)CCC/C=C/[C@@H]2C[C@H](O)C[C@H]21)N(C)C", "GI50": "1.53 µM", "TGI": "6.18 µM"}
{"smiles": "Clc1cnc(Nc2ccc(OCCN3CCCC3)cc2)nc1NCc1ccco1", "GI50": "2.37 µM", "TGI": "5.1 µM"}
{"smiles": "C=CCc1c(O)c(C(=O)/C=C/c2ccc(Cl)cc2)c(OC)c2ccoc12", "GI50": "2.27 µM", "TGI": "5.84 µM"}
{"smiles": "Oc1c(C(c2ccc(F)cc2)N2CCCCC2)ccc2cncnc12", "note": "(stereo not given)", "GI50": "0.494 µM", "TGI": "8.47 µM"}
{"smiles": "O=C(Nc1nc2c(C(F)(F)F)cccc2s1)c1cc(Cl)ccc1O", "GI50": "0.226 µM", "TGI": "0.749 µM"}
{"smiles": "Nc1nc(-c2ccc3c(c2)/C(=C\\c2cc(Br)c(O)c(Br)c2)C(=O)N3)cs1", "GI50": "6.5 µM", "TGI": "> 22.8 µM"}
{"smiles": "Cc1c(C(=O)Nc2ccc(N3C[C@@H](C)O[C@@H](C)C3)nc2)cccc1-c1ccc(OC(F)(F)F)cc1", "GI50": "3.11 µM and 5.62 µM", "TGI": "19.2 µM and 31.7 µM"}
{"smiles": "CCOC(=O)N1CCC(N=C2CSc3nnc(-c4cc(C(F)(F)F)cc(C(F)(F)F)c4)n3N2)CC1", "GI50": "1.74 µM", "TGI": "4.67 µM"}
{"smiles": "CN1CCN(Cc2ccc(NC(=O)c3cncc(C#Cc4ccc(N)nc4)c3)cc2C(F)(F)F)CC1", "GI50": "1.01 µM", "TGI": "4.3 µM"}
{"smiles": "c1ccc2c(N=NSc3ncnc4nc[nH]c34)c3ccccc3nc2c1", "GI50": "0.549 µM", "TGI": "2.34 µM"}
{"smiles": "Cc1ccc2sc3c(NCCCN)nc4ccccc4c3c(=O)c2c1", "GI50": "1.67 µM", "TGI": "3.36 µM"}
{"smiles": "O=C1/C=C/[C@@H](O)[C@@H]2C[C@@H](O)C[C@H]2/C=C/CCC[C@H](CCO)O1", "GI50": "0.0239 µM", "TGI": "0.0757 µM"}
{"smiles": "O=C(Nc1cccc([N+](=O)[O-])c1)c1cccc(C(=O)Nc2cccc([N+](=O)[O-])c2)c1", "GI50": "> 100 µM", "TGI": "> 100 µM"}
{"smiles": "C[C@@H]1CC[C@@H]2[C@@H]1[C@H](OC(=O)/C=C/C1CCCCC1)[C@]1(C3CCCCC3)C[C@@H](OC(=O)CO)[C@@]2(C)O1", "GI50": "13.4 µM", "TGI": "27.5 µM"}
{"smiles": "CCOP(=O)(OCC)/C(=C/n1c(=S)[nH]c2ccccc21)C(=O)OC", "GI50": "> 100 µM", "TGI": "> 100 µM"}
{"smiles": "CCC(=O)NC1=C(Cl)C(=O)C(NC(=O)CC)=C(Cl)C1=O", "GI50": "1.72 µM", "TGI": "3.66 µM"}
{"smiles": "CCN1CCN(C(=O)[C@]23CC[C@@H](C)[C@H](C)[C@@H]2C2=CC[C@@H]4[C@@]5(C)CCC(=O)C(C)(C)[C@@H]5CC[C@@]4(C)[C@]2(C)CC3)CC1", "GI50": "0.931 µM", "TGI": "2.32 µM"}
{"smiles": "COc1ccc(C(=O)/C=C/c2ccc(OCc3cccc(C(F)(F)F)c3)c(OC)c2)cc1OC", "GI50": "107 µM", "TGI": "> 1000 µM"}
{"smiles": "CCN1CCN(c2ccc(NC(=O)Nc3nc4ccc(-c5ccccc5OC)cc4s3)cc2)CC1", "GI50": "2.17 µM", "TGI": "4.03 µM"}
{"smiles": "Cc1[nH]nc(C(F)(F)F)c1Cc1sc2c(c1C(=O)N1C[C@](C)(O)CO1)c(=O)n(C)c(=O)n2C(C)C", "GI50": "> 100 µM", "TGI": "> 100 µM"}
{"smiles": "CCN(CC)CCOc1nc2ccccc2c2c1-c1ccc(OC)cc1C2=O", "GI50": "0.857 µM", "TGI": "3.26 µM"}
{"smiles": "O=C1C2=C(C(=O)c3ccccc31)C(O)(S(=O)(=O)O)C(O)(S(=O)(=O)O)C1N=CC=CC21", "note": "(stereo not given)", "GI50": "10.6 µM and 4.29 µM", "TGI": "37.5 µM and 21.2 µM"}
